The target in the data set is T1, ATP-binding cassette sub-family C member 4 (Homo sapiens, UniProt O15439).
T1 sequence (O15439 whole entry): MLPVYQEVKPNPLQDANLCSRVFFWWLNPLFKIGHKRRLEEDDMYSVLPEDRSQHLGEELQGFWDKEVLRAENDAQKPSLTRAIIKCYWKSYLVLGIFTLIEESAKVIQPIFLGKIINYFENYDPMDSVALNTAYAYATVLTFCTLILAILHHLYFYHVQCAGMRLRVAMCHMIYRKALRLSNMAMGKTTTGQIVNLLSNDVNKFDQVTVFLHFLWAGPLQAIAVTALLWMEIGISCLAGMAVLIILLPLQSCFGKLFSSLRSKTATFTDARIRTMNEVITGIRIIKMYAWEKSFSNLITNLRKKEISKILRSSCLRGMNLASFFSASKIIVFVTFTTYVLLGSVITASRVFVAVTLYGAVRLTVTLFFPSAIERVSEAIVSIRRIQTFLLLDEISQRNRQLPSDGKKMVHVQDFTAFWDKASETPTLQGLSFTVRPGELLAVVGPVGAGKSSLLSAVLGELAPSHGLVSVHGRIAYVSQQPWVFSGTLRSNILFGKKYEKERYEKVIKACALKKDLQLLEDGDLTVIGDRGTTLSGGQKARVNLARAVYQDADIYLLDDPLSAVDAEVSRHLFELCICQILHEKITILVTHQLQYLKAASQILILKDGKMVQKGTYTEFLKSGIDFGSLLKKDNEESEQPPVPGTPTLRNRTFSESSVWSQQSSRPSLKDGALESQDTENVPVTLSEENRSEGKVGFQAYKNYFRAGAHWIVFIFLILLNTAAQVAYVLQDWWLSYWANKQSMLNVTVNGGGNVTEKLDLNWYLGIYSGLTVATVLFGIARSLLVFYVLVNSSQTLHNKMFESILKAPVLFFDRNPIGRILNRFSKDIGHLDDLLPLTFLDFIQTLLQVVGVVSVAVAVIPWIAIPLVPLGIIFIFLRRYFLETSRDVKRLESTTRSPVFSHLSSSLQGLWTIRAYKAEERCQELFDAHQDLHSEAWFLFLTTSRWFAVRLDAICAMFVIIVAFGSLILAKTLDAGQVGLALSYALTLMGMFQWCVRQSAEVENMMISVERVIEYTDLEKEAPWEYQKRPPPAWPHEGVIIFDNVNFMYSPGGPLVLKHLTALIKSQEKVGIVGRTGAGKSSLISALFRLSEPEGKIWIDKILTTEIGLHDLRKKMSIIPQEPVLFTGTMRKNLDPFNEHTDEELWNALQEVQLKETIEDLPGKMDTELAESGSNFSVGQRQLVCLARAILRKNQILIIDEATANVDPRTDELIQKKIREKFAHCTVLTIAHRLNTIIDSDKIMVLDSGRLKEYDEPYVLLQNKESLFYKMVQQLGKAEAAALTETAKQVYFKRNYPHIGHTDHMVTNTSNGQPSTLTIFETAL
The data set can be described thus: TP_TRANSPORTER: efflux in CEM-r1 cells. Type of data set: functional, cell-based.

Regarding `Nc1ncnc2c1ncn2CCOCP(=O)(O)O` [ADEFOVIR], the Activity entry is “substrate [+]”.

Turning to `Cc1cn([C@H]2C[C@H](N=[N+]=[N-])[C@@H](COP(=O)(O)O)O2)c(=O)[nH]c1=O` [AZIDOTHYMIDINE MONOPHOSPHATE], the Activity entry is “substrate [+]”.

The record behind these values is ChEMBL document CHEMBL2074462, “MRP4: A previously unidentified factor in resistance to nucleoside-based antiviral drugs” (Nat Med, 1999).
